The source of these data is ChEMBL document CHEMBL4382266, “Melonoside B and Melonosins A and B, Lipids Containing Multifunctionalized ω-Hydroxy Fatty Acid Amides from the Far Eastern Marine Sponge Melonanchora kobjakovae” (J Nat Prod, 2018).

What all share (type): cell-based
The nature of data set [1]: Cytotoxicity against mouse JB6 Cl41 cells after 24 hrs assessed as reduction in cell viability at 6 to 12 uM by MTS assay.
Data set [2] in a line: (§1) Inhibition of NFkB (unknown origin) expressed in mouse JB6 Cl41 cells after 24 hrs by luciferase reporter gene assay. As to conditions: Homo sapiens, JB6 Cl41, 24 h. A general note: Reporter assays use an easily measured gene product as a stand-in for the process of interest.
Data set [3] has as its target Cellular tumor antigen p53 (Homo sapiens) (UniProt P04637). The experiment in a line: Inhibition of p53 (unknown origin) expressed in mouse JB6 Cl41 cells after 24 hrs by luciferase reporter gene assay.
The species entered for data set [4] is Homo sapiens. Described as §1.
Data set [5] deals with Transcription factor Jun (Homo sapiens) (UniProt P05412). Kind of data set: Inhibition of AP-1 (unknown origin) expressed in mouse JB6 Cl41 cells after 24 hrs by luciferase reporter gene assay.
The species entered for data set [6] is Homo sapiens. The experiment in a line: Inhibition of NFkB (unknown origin) expressed in mouse JB6 Cl41 cells at 25 uM after 24 hrs by luciferase reporter gene assay relative to control.
Data set [7] has as its target Transcription factor Jun (Homo sapiens) (UniProt P05412). Kind of data set: Inhibition of AP-1 (unknown origin) expressed in mouse JB6 Cl41 cells at 25 uM after 24 hrs by luciferase reporter gene assay relative to control.
The nature of data set [8]: Cytotoxicity against mouse JB6 Cl41 cells after 24 hrs assessed as reduction in cell viability at 25 to 37 uM by MTS assay.

The structures appear in SMILES notation. Active and inactive are the calls of the source. The rule behind the calls is not given here.

One may read the IC50 as the midpoint of a concentration-inhibition curve. The low end stands for greater potency, the high end for weaker potency. By inhibition is commonly meant how much of the control response was suppressed.

Chain of Cellular tumor antigen p53 (Homo sapiens) (P04637 whole entry, looked up): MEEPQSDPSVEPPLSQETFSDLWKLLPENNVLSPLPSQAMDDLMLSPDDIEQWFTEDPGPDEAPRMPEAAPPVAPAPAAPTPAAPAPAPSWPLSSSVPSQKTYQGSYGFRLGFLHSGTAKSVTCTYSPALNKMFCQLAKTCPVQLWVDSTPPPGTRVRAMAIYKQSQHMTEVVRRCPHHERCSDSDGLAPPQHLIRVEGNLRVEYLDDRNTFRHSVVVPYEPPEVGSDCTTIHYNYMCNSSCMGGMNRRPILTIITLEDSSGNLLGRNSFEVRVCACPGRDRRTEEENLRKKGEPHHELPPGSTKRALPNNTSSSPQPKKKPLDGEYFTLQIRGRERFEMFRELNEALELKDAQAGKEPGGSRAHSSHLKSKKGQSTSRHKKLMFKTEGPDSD
Chain of Transcription factor Jun (Homo sapiens) (P05412 whole entry): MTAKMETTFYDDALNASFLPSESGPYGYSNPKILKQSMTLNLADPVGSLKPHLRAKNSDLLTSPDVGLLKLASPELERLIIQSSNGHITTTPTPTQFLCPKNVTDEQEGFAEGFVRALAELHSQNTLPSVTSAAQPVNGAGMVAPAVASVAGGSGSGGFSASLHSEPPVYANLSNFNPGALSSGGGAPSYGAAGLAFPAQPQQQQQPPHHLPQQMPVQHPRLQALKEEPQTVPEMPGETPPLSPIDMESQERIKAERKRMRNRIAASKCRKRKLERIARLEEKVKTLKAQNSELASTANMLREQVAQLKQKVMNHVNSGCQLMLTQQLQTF

With `CO[C@@H](CC/C=C\CCCCC(=O)CCCCCCC(=O)CC/C=C\CCCCCCO)C(=O)NCCc1ccc(O)cc1`, the Activity result in data set [1] is given as “Non-Toxic”. In addition, in data set [2], the midpoint of inhibition, the IC50, lay at 7.2 µM. The inhibition entry in data set [3] was “inactive”.
In the case of `CO[C@@H](CC/C=C\CCCCC(=O)CCCCCCC(=O)CC/C=C\CCCCCCO[C@@H]1O[C@H](C(=O)O)[C@@H](O)[C@H](O)[C@H]1O)C(=O)NCCc1ccc(O)cc1`, the inhibition result (in the data set filed under Homo sapiens [4]; in data set [3]; in data set [5]) was “inactive” throughout.
In the case of `CO[C@@H](CC/C=C\CCCCC(=O)CCCCC(=O)CCCCCCCCCCO)C(=O)NCCc1ccc(O)cc1`, the inhibition in the data set filed under Homo sapiens [6] stood at 67%; in data set [7], 87%. For the same compound, the inhibition entry in data set [3] is “inactive”. Further, in data set [8], the Activity result is recorded as “Non-Toxic”.
As for `CO[C@@H](CC/C=C\CCCCC(=O)CCCCC(=O)CCCCCCCCCCO[C@@H]1O[C@H](C(=O)O)[C@@H](O)[C@H](O)[C@H]1O)C(=O)NCCc1ccc(O)cc1`, the inhibition entry (in the data set filed under Homo sapiens [4]; in data set [3]; in data set [5]) was “inactive” throughout.
